These results are taken from ChEMBL document CHEMBL5370549, “Optimization and evaluation of pyridinyl vinyl sulfones as Nrf2 activator for the antioxidant and anti-inflammatory effects” (Eur J Med Chem, 2023).

For data set [1], the target named is T1, Nuclear factor erythroid 2-related factor 2 (Homo sapiens, UniProt Q16236).
T1 sequence (Q16236 whole entry): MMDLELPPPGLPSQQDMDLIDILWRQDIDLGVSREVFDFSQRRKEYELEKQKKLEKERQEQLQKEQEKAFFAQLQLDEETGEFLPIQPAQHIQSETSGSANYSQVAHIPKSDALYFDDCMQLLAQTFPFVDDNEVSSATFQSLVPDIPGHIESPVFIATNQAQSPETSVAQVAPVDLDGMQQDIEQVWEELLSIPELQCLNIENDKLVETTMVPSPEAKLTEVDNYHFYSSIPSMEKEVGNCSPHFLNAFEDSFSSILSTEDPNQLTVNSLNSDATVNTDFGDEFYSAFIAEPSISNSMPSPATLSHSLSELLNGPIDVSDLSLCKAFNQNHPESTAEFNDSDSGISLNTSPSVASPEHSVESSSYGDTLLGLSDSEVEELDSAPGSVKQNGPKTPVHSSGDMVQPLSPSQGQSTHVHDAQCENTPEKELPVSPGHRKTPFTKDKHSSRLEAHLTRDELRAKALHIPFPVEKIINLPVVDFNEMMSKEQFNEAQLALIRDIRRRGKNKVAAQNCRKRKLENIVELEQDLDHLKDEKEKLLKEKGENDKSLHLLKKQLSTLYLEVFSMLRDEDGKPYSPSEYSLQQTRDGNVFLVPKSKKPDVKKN
Briefly: Activation of Nrf2 in human U2OS cells co-expressing Keap1 assessed as induction of Nrf2 nuclear translocation incubated for 6 hrs by PathHunter chemiluminescence based analysis. It counts as cell-based.

The next data set has as its target CYP2C19 (Homo sapiens, UniProt P33261). Kind of data set: Inhibition of CYP2C19 (unknown origin) assessed as enzyme activity at 10 uM relative to control. It counts as ADME. The arrangement: scale not given: the % may be the effect or the level left. The following applies: read-out: Activity.
Data set [2] in a line: Metabolic stability of the compound in human liver microsomes assessed as parent compound remaining measured after 30 mins. It is filed as ADME, Microsome. As to conditions: read-out: Stability.
The nature of data set [3]: Metabolic stability of the compound in mouse liver microsomes assessed as parent compound remaining measured after 30 mins. It is filed as ADME, Microsome. The following applies: read-out: Stability.
The nature of data set [4]: Metabolic stability of the compound in rat plasma assessed as parent compound remaining measured after 30 mins. As to conditions: read-out: Stability. It is filed as ADME, cell-free.
Data set [5] has as its target T2, Nuclear factor erythroid 2-related factor 2 (Mus musculus) (UniProt Q60795).
T2 sequence (whole entry): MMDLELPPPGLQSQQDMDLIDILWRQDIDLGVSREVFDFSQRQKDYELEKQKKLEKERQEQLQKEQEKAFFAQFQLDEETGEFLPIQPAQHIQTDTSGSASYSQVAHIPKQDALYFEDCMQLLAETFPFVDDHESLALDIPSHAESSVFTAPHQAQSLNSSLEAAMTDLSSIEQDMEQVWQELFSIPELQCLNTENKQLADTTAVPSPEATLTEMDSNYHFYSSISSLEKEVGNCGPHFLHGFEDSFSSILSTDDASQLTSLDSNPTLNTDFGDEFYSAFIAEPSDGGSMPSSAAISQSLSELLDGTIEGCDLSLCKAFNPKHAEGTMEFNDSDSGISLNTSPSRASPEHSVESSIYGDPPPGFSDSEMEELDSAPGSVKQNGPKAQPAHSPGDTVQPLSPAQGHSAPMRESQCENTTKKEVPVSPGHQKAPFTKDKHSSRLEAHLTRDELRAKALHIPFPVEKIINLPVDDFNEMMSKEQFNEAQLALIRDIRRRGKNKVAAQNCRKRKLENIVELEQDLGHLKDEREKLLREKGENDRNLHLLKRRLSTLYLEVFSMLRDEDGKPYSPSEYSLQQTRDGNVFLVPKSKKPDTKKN
Briefly: Activation of Nrf2 in mouse BV-2 cells assessed as increase in Nrf2 level in whole cell lysates at 3 uM measured after 48 hrs by immunoblot analysis. It counts as subcellular.

Data set [6] addresses T2, Nuclear factor erythroid 2-related factor 2 (Mus musculus). Briefly: Activation of Nrf2 in mouse BV-2 cells assessed as increase in Nrf2 nuclear translocation measured after 3 hrs by immunoblot analysis. It counts as subcellular. As to conditions: Nucleus, filed as activator, dose 0.01-3 µM.
For data set [7] the target is unchanged. Kind of data set: Activation of Nrf2 in mouse BV-2 cells assessed as increase in HO-1 mRNA expression incubated for 3 hrs by qRT-PCR analysis. The following applies: filed as activator, dose 0.01-3 µM. It counts as cell-based.
Data set [8] shares this target. Kind of data set: Activation of Nrf2 in mouse BV-2 cells assessed as increase in Gclm mRNA expression incubated for 3 hrs by qRT-PCR analysis. It counts as cell-based. The following applies: filed as activator, dose 0.01-3 µM.
The target is the same in data set [9]. Kind of data set: Activation of Nrf2 in mouse BV-2 cells assessed as increase in HO-1 protein expression at 3 uM measured after 9 hrs by immunoblot analysis. The following applies: filed as activator. It counts as cell-based.
Data set [10] has the same target. Kind of data set: Activation of Nrf2 in mouse BV-2 cells assessed as increase in GCLM protein expression at 3 uM measured after 48 hrs by immunoblot analysis. It is filed as cell-based. The following applies: filed as activator.
Data set [11] has as its system BV-2. Briefly: Antiinflammatory activity against LPS-induced mouse BV-2 cells assessed as inhibition of IL-1 beta protein expression at 0.001 to 1 uM pretreated for 6 hrs followed by LPS stimulation for 24 hrs by immunoblot analysis. It counts as functional, cell-based. As to conditions: dose 0.001-1 µM, time 30.0 hrs.
The test system of data set [12] is BV-2. Briefly: Antiinflammatory activity against LPS-induced mouse BV-2 cells assessed as inhibition of TNF-alpha production at 0.1 to 3 uM pretreated for 6 hrs followed by LPS stimulation for 24 hrs by ELISA. It is filed as functional, cell-based. As to conditions: dose 0.1-3 µM, time 30.0 hrs.
Data set [13] is described as follows: Toxicity against C57BL/6N mouse at 1000 mg/kg, po administered as single dose. It is filed as organism-based. The following applies: in vivo.
Data set [14] concerns Mus musculus. Briefly: Cognitive enhancing activity against LPS-induced neuroinflammation C57BL/6N mouse model assessed as […] memory improvement by measuring delayed step-through latency at 20 mg/kg/day, po administered for 3 days followed by LPS administration for 7 days by passive avoidance test. It is filed as functional, organism-based. The following applies: time 10.0 day.

Data set [15] deals with Mus musculus. Kind of data set: Antiinflammatory activity against LPS-induced neuroinflammation C57BL/6N mouse model assessed as reduction of glial cell reactivity by measuring reduction in IBA1 expression in hippocampus CA1 region at 20 mg/kg/day, po administered for 3 days followed by LPS administration for 7 days by immunofluorescence staining based analysis. It is filed as functional, organism-based. As to conditions: time 10.0 day.

Data set [16] has as its system Mus musculus. Briefly: Antiinflammatory activity against LPS-induced neuroinflammation C57BL/6N mouse model assessed as reduction of glial cell reactivity by measuring reduction in GFAP expression in hippocampus CA3 region at 20 mg/kg/day, po administered for 3 days followed by LPS administration for 7 days by immunofluorescence staining based analysis. As to conditions: time 10.0 day. It counts as functional, organism-based.

Data set [17] concerns Mus musculus. Briefly: Antiinflammatory activity against LPS-induced neuroinflammation C57BL/6N mouse model assessed as reduction of glial cell reactivity by measuring reduction in IBA1 expression in hippocampus CA3 region at 20 mg/kg/day, po administered for 3 days followed by LPS administration for 7 days by immunofluorescence staining based analysis. It is filed as functional, organism-based. As to conditions: time 10.0 day.

In data set [18] the test system is Mus musculus. Briefly: Antiinflammatory activity against LPS-induced neuroinflammation C57BL/6N mouse model assessed as reduction of glial cell reactivity by measuring reduction in GFAP expression in cortex at 20 mg/kg/day, po administered for 3 days followed by LPS administration for 7 days by immunofluorescence staining based analysis. It is filed as functional, organism-based. The following applies: time 10.0 day.

Data set [19] concerns Mus musculus. Briefly: Antiinflammatory activity against LPS-induced neuroinflammation C57BL/6N mouse model assessed as reduction of glial cell reactivity by measuring reduction in IBA1 expression in cortex at 20 mg/kg/day, po administered for 3 days followed by LPS administration for 7 days by immunofluorescence staining based analysis. It counts as functional, organism-based. As to conditions: time 10.0 day.

Activity calls are given as the source filed them. No cut-off for these calls is given here.

Sequence of CYP2C19 (P33261 whole entry): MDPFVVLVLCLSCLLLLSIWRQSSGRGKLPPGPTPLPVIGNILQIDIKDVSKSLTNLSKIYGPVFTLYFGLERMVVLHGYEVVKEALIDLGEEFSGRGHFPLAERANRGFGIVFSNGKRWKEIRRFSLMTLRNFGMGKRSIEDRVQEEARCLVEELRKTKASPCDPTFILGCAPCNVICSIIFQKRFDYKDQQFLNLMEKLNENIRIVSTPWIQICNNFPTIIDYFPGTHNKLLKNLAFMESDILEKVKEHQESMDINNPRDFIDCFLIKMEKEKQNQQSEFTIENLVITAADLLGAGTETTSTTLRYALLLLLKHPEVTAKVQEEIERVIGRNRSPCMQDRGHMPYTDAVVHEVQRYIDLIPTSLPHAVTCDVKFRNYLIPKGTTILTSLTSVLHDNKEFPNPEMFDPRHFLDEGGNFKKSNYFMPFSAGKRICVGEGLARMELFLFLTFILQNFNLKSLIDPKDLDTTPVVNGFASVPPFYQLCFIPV

With `COc1cccnc1S(=O)(=O)/C=C/c1ncccc1Cl`, the EC50 in data set [1] stood at 0.037 µM. In addition, the activity at 10 µM at CYP2C19 turned out to be 74.7%. Also, the results for the remaining at 0.5 h in data set [2], in data set [3] and in data set [4] were 94.1%, 61% and 74.4%, respectively. For the same compound, the Activity result in [5] was “inactive”. For the same compound, the Activity entry in data set [6] was “Dose-Dependent Effect”; in data set [7] it was “Dose-Dependent Effect”; in data set [8], “Dose-Dependent Effect”; in [13] it was “Non-Toxic”. Further, the Activity entry (in data set [9]; in [10]; with BV-2 [11]; with BV-2 [12]; with Mus musculus [14]; in the data set on Mus musculus [15]) was “Active” each time. Moreover, the Activity result in the data set on Mus musculus [16], in the data set on Mus musculus [17], in the data set with Mus musculus [18] and in the data set on Mus musculus [19] was “Active” each time.
